Reference: paper PMC6359675, “Functionalization of the Chalcone Scaffold for the Discovery of Novel Lead Compounds Targeting Fungal Infections” (Molecules, 2019)
Like-named read-outs stand apart in the source and are kept apart here.

Experiments:
[1] = system: C. albicans ATCC 10231; test: In vitro susceptibility testing, microdilution broth (EUCAST), C. albicans control strain; assay type: cell-based, Candida albicans; conditions: for IC50: mean and 95% confidence interval; for inhibition at 100 µM: ATCC10231, 24 h; for antifungal activity against C. albicans growth, in words: screen at 100 μM
Experimental: The in vitro antifungal activity of the chalcones was evaluated by a microdilution broth method in accordance with the guidelines provided by the EUCAST Edef 7.3 [22]. Briefly, all strains were cultured on Sabauraud dextrose, then inocula, prepared at 0.5 McFarland, were diluted 1:20 in RPMI-1640 medium (Gibco®, ThermoFisher Scientific Inc., Waltham, MA, USA), containing glucose 2%, 0.3% levo-glutamine buffered to pH 7.0 with 0.165 M 3-(N-morpholino)propanesulfonic acid (MOPS) to yield 1-5 × 10^5 cells/mL. A total of 100 µL of the yeast suspension was inoculated in a 96-well microplate and incubated with 100 µL of serially 2-fold dilution of the compound in the range 200–6.25 µM. The following controls were included: yeast suspensions incubated in RPMI-1640 culture medium (positive growth control), or supplemented with dilutions of DMSO, or fluconazole (Sigma-Aldrich, St. Louis, MO, USA) as a commercial drug. To check the background turbidity of reagents and the sterility of the procedure, dilutions of each compound were incubated in RPMI-1640 culture medium, without yeast inoculum. The inoculated plate was incubated at 37 °C for 24 h, and subsequently the optical density at 630 nm was measured by the Multiskan Ascent microplate reader (Thermo Fisher Scientific Inc.). The effectiveness of the compounds was expressed as percent inhibition relative to the positive growth control when the inhibition […] the 50% at 100 µM. The IC50 value was determined by interpolation of the dose–response curves generated by plotting the percentages of growth inhibition, relative to the drug-free control (set to 100% of growth), as a function of the tested concentrations (on a logarithm scale). Statistical analysis was carried out by the nonlinear regression method using GraphPad Prism version 5.0 for Windows (GraphPad Software, San Diego, CA, USA). All assays were performed in triplicate and at least two independent experiments were carried out.

[2] = Cytotoxicity test on Vero cells (WST8/CCK-8 cell viability); assay type: cell-based, African green monkey; conditions: African green monkey, Vero cells (ATCC CCL-81), Vero cells, mean and 95% confidence interval
Experimental: African green monkey kidney cells (Vero ATCC CCL-81) were cultured in Eagle’s Minimal Essential Medium (MEM) (Sigma-Aldrich), supplemented with 10% fetal bovine serum (FBS) (Carlo Erba Reagents, Milan, Italy), 100 U/mL penicillin, and 100 µg/mL streptomycin at 37 °C with 5% CO2. For experiments, cells were seeded into 96-well plates at 10^4 cells/well, and incubated at 37 °C for 24 h. Following washes with PBS, cell monolayer was incubated with 100 µL of serially 2-fold dilution of the compound in the range 200–6.25 µM. Both untreated cells and cells incubated with medium containing solvent dilutions were included in each experiment as controls.
The cell viability was assessed by a WST8-based assay according to the manufacturer’s instructions (CCK-8, Cell Counting Kit-8, Dojindo Molecular Technologies, Rockville, MD, USA). After 72 h of incubation, culture medium was removed from each well, the monolayer was washed with PBS, and 100 µL of fresh medium containing 10 µL of CCK-8 solution were added. Following a 2 h at 37 °C, the absorbance was measured at 450/630 nm; data were calculated as the percentage of the cell viability relative to the untreated controls.

[3] = Candida albicans, ATCC10231, C. albicans ATCC 10231, read-out: IC50
[4] = Candida albicans, ATCC10231, C. albicans ATCC 10231, read-out: IC50 [μg/mL]
[5] = Candida albicans, C. albicans ATCC 10231
[6] = C. albicans ATCC 10231, read-out: IC50

IC50 [1, 3] | IC50 [1, 4] | melting point | IC50 [1, 6] | SMILES | inhibition at 100 µM [1, 5] | CC50 at 72 h ([2]; read-out: CC50) | CC50 at 72 h ([2]; read-out: CC50 [μg/mL]) | antifungal activity against C. albicans growth, in words ([1]; C. albicans ATCC 10231)
30.7 µM | 9 µg/mL | – | – | C#CCOc1ccc(C(=O)/C=C/c2cccnc2)c(OC)c1 [Compound 12] | > 99% | 13.6 µM | 4 µg/mL | –
– | – | – | – | CN(C)c1ccc(/C=C/C(=O)c2cc(Cl)ccc2O)cc1 [Compound 6, (E)-1-(5-chloro-2-hydroxyphenyl)-3-(4-(dimethylamino)phenyl)prop-2-en-1-one] | < 1% | – | – | inactive
– | – | 166 to 168 °C | – | C#CCOc1ccc(C(=O)/C=C/c2ccc(Cl)cc2Cl)c(OCC#C)c1 [Compound 23, (E)-1-(2,4-bis(prop-2-yn-1-yloxy)phenyl)-3-(2,4-dichlorophenyl)prop-2-en-1-one] | 4.6 ± 13.8% | – | – | inactive
36.8 µM | 10.8 µg/mL | – | – | C#CCOc1ccc(C(=O)/C=C/c2ccc([N+](=O)[O-])cc2)c(OCC#C)c1 [Compound 26] | 63.9 ± 3.4% | 5.1 µM | 1.5 µg/mL | –
– | – | – | – | C#CCOc1ccc(C(=O)/C=C/c2ccc(N(C)C)cc2)c(OC)c1 [Compound 15, (E)-3-(4-(dimethylamino)phenyl)-1-(2-methoxy-4-(prop-2-yn-1-yloxy)phenyl)prop-2-en-1-one] | < 1% | – | – | inactive
– | – | 96 to 98 °C | – | C#CCOc1ccc(C(=O)/C=C/c2cccnc2)cc1 [Compound 36, (E)-1-(4-(prop-2-yn-1-yloxy)phenyl)-3-(pyridin-3-yl)prop-2-en-1-one] | < 1% | – | – | devoid of any effect
– | – | 174 to 175 °C | – | C#CCOc1ccc(C(=O)/C=C/c2ccc(Cl)cc2Cl)c(OC)c1 [Compound 11, (E)-3-(2,4-dichlorophenyl)-1-(2-methoxy-4-(prop-2-yn-1-yloxy)phenyl)prop-2-en-1-one] | 9.8 ± 6.7% | – | – | inactive
– | – | 103 to 105 °C | – | C#CCOc1ccc(C(=O)/C=C/c2ccc([N+](=O)[O-])cc2)cc1 [Compound 38, (E)-3-(4-nitrophenyl)-1-(4-(prop-2-yn-1-yloxy)phenyl)prop-2-en-1-one] | 46.3 ± 3.7% | – | – | inactive
– | – | 87 to 88 °C | – | CC(C)=CCOc1ccc(C(=O)/C=C/c2cccnc2)cc1 [Compound 32, (E)-1-(4-((3-methylbut-2-en-1-yl)oxy)phenyl)-3-(pyridin-3-yl)prop-2-en-1-one] | < 1% | – | – | devoid of any effect
– | – | – | – | C#CCOc1ccc(C(=O)/C=C/c2ccc(N(C)C)cc2)c(OCC#C)c1 [Compound 27, (E)-1-(2,4-bis(prop-2-yn-1-yloxy)phenyl)-3-(4-(dimethylamino)phenyl)prop-2-en-1-one] | < 1% | – | – | inactive
– | – | – | – | CN(C)c1ccc(/C=C/C(=O)c2cc(F)ccc2O)cc1 [Compound 9, (E)-3-(4-(Dimethylamino)phenyl)-1-(5-fluoro-2-hydroxyphenyl)prop-2-en-1-one] | 38.5 ± 2.9% | – | – | –
– | – | – | – | CC(C)=CCOc1ccc(C(=O)/C=C/c2ccc(N(C)C)cc2)cc1 [Compound 35, (E)-3-(4-(dimethylamino)phenyl)-1-(4-((3-methylbut-2-en-1-yl)oxy)phenyl)prop-2-en-1-one] | 13.9 ± 3.6% | – | – | inactive
12 µM | 3.5 µg/mL | – | – | O=C(/C=C/c1ccc(F)cc1)c1ccc(OCCO)cc1 [Compound 31, (E)-3-(4-fluorophenyl)-1-(4-(2-hydroxyethoxy)phenyl)prop-2-en-1-one] | 97.3 ± 0.5% | 8.3 µM | 2.4 µg/mL | –
– | – | – | – | O=C(/C=C/c1ccccc1F)c1cc(Cl)ccc1O [Compound 2, (E)-1-(5-Chloro-2-hydroxyphenyl)-3-(2-fluorophenyl)prop-2-en-1-one] | 35.8 ± 1.1% | – | – | –
12.6 µM | 3.7 µg/mL | – | – | CC(C)=CCOc1ccc(C(=O)/C=C/c2ccncc2)c(O)c1 [Compound 21] | 96.5 ± 1.4% | 14.8 µM | 4.3 µg/mL | –
– | – | – | – | C#CCOc1ccc(C(=O)/C=C/c2ccc(N(C)C)cc2)c(O)c1 [Compound 17, (E)-3-(4-(dimethylamino)phenyl)-1-(2-hydroxy-4-(prop-2-yn-1-yloxy)phenyl)prop-2-en-1-one] | 11 ± 3.9% | – | – | inactive
– | – | – | – | COc1cc(OCC=C(C)C)ccc1C(=O)/C=C/c1ccc(F)cc1 [Compound 18] | 34.1 ± 7.5% | – | – | –
– | – | – | – | O=C(/C=C/c1ccc(F)cc1)c1cc(F)ccc1O [Compound 8, (E)-1-(5-Fluoro-2-hydroxyphenyl)-3-(4-fluorophenyl)prop-2-en-1-one] | < 1% | – | – | –
10.8 µM | 3.2 µg/mL | – | – | C#CCOc1ccc(C(=O)/C=C/c2cccnc2)c(O)c1 [Compound 16] | 91.9 ± 8.2% | 17.8 µM | 5.2 µg/mL | –
– | – | – | – | COc1cc(OCc2cn(CCO)nn2)ccc1C(=O)/C=C/c1ccc(F)cc1 [Compound 30, (E)-3-(4-fluorophenyl)-1-(4-((1-(2-hydroxyethyl)-1H-1,2,3-triazol-4-yl)methoxy)-2-methoxyphenyl)prop-2-en-1-one] | 9.5 ± 4.8% | – | – | inactive
26.3 µM | 12.8 µg/mL | – | 43.8 µM | C#CCOc1ccc(C(=O)/C=C/c2cccnc2)c(OCC#C)c1 [Compound 24] | 72 ± 9.8% | 13 µM | 3.8 µg/mL | –
43.8 µM | 7.7 µg/mL | – | 26.3 µM | C#CCOc1ccc(C(=O)/C=C/c2ccncc2)c(OCC#C)c1 [Compound 25] | 81.3 ± 17% | 9.1 µM | 2.7 µg/mL | –
– | – | – | – | C#CCOc1ccc(C(=O)/C=C/c2ccc(N(C)C)cc2)cc1 [Compound 39, (E)-3-(4-(dimethylamino)phenyl)-1-(4-(prop-2-yn-1-yloxy)phenyl)prop-2-en-1-one] | < 1% | – | – | inactive
– | – | – | – | C#CCOc1ccc(C(=O)/C=C/c2ccc(F)cc2)c(OC)c1 [Compound 10, (E)-3-(4-fluorophenyl)-1-(2-methoxy-4-(prop-2-yn-1-yloxy)phenyl)prop-2-en-1-one] | 23.3 ± 9.6% | – | – | –
– | – | – | – | C#CCOc1ccc2c(c1)O/C(=C\c1cccnc1)C2=O [Compound 40, (Z)-6-(prop-2-yn-1-yloxy)-2-(pyridin-3-ylmethylene)benzofuran-3(2H)-one] | < 1% | – | – | loss in activity
– | – | – | – | C#CCOc1ccc(C(=O)/C=C/c2ccc(F)cc2)c(OCC#C)c1 [Compound 22] | < 1% | – | – | inactive
– | – | – | – | COc1cc(O)ccc1C(=O)/C=C/c1ccc(F)cc1 [Compound 29, (E)-3-(4-Fluorophenyl)-1-(4-hydroxy-2-methoxyphenyl)prop-2-en-1-one] | 17.8 ± 4.1% | – | – | poor inhibition
8.1 µM | 2.4 µg/mL | – | – | C#CCOc1ccc(C(=O)/C=C/c2ccncc2)c(OC)c1 [Compound 13] | > 99% | 7.3 µM | 2.1 µg/mL | –
